For this test, the target named is T1, PI3Kδ (PI3 Kd) (Homo sapiens, UniProt O00329).
T1 construct: purchased Millipore
Description: PI3K HTRF enzymatic inhibition assay (cell-free), PI3Kd. The format is biochemical. On the procedure: PI3K α, β, δ and γ Enzymatic Inhibition Assays
Compounds were screened for their ability to inhibit PI3Kα (PI3Kα), PI3Kβ (PI3 Kb), PI3Kδ (PI3 Kd) and PI3Kγ (PI3 Kg) using a cell-free based PI3K HTRF™ assay (Millipore, ref. #33-017) All reagents to perform the reactions were prepared according to the manufacturer protocol. All PI3K enzymes were recombinant and were purchased at Millipore.
These concentrations were final in the assay. • 3) A reservoir plate containing Adenosine TriPhosphate (ATP) diluted in the Millipore kit buffer was prepared for each isoform. […] Incubation was done for 8 minutes (for all four isoforms) then the reaction was stopped by addition of the Stop solution. The Detection solution was added. These solutions were prepared previously according to the kit specifications.

T1 sequence (O00329 whole entry): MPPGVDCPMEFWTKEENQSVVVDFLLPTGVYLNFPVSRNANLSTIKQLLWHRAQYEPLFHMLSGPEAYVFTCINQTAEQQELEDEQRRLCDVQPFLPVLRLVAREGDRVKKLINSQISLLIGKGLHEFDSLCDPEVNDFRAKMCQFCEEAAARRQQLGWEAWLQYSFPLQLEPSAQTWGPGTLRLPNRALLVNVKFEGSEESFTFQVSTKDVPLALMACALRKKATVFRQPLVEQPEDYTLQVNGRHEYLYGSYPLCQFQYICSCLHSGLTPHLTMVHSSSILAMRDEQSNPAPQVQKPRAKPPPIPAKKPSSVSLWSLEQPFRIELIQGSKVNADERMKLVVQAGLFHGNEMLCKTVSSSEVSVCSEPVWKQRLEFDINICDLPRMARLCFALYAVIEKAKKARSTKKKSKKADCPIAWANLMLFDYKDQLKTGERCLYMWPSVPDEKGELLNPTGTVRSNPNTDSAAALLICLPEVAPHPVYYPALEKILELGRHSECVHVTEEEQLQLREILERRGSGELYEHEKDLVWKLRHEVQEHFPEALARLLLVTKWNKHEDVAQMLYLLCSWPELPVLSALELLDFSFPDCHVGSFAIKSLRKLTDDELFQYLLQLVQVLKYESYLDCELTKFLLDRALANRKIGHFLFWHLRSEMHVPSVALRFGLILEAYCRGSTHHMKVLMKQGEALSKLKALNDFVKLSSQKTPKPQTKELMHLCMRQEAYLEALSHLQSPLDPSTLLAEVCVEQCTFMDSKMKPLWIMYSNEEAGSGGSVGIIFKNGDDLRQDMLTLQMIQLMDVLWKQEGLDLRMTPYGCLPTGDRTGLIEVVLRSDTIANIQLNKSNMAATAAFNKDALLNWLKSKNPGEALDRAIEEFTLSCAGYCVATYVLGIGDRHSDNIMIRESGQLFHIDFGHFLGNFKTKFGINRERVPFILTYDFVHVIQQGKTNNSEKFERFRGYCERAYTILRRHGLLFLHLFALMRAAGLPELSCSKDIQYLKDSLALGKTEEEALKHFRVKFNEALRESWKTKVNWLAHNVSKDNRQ
T1 sequence (P27986 whole entry partner): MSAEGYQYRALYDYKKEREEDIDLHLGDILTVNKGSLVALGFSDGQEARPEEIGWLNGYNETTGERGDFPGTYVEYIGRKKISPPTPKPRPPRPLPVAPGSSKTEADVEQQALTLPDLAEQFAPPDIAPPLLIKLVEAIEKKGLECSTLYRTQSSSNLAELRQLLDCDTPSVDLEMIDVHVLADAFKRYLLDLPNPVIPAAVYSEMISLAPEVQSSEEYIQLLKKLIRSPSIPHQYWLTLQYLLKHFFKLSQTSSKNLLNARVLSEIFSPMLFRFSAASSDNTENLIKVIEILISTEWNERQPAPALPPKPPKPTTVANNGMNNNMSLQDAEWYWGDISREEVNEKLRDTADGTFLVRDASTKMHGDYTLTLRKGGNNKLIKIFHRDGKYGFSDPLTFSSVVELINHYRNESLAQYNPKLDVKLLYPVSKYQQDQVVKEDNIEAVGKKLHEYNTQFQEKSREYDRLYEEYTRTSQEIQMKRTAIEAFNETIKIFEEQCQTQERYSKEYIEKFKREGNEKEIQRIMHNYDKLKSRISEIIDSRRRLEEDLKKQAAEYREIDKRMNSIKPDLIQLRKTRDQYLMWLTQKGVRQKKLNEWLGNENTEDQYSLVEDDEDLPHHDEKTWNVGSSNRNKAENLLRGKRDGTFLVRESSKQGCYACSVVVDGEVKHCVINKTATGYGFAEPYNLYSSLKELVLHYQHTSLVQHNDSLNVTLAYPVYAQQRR

As usually defined, the IC50 is the concentration that gives 50% inhibition. High values mean weaker potency, low ones greater potency. With `CCCOC(=O)c1ccn2nc(C(C)Nc3ncnc(N)c3C#N)n(-c3ccccc3)c(=O)c12` [Example 164, (S)-Propyl 2-(1-(6-amino-5-cyanopyrimidin-4-ylamino)ethyl)-4-oxo-3-phenyl-3,4-dihydropyrrolo[1,2-f][1,2,4]triazine-5-carboxylate], the IC50 amounted to 67 nM.
The compound `Cc1cc(-n2c([C@H](C)Nc3ncnc(N)c3C#N)nn3cccc3c2=O)n[nH]1` [Example 127, (S)-4-Amino-6-(1-(3-(5-methyl-1H-pyrazol-3-yl)-4-oxo-3,4-dihydropyrrolo[1,2-f][1,2,4]triazin-2-yl)ethylamino)pyrimidine-5-carbonitrile] returned an IC50 of 89 nM.
The result for `C[C@H](Nc1ncnc(N)c1C#N)c1nn2ccc(Br)c2c(=O)n1-c1ccccc1` [Example 144, (S)-4-Amino-6-(1-(5-bromo-4-oxo-3-phenyl-3,4-dihydropyrrolo[1,2-f][1,2,4]triazin-2-yl)ethylamino)pyrimidine-5-carbonitrile] reads 1 nM; that for `Cc1ccccc1-n1c(CNc2ncnc(N)c2C#N)nn2cccc2c1=O` [Example 158, 4-Amino-6-((4-oxo-3-o-tolyl-3,4-dihydropyrrolo[1,2-f][1,2,4]triazin-2-yl)methylamino)pyrimidine-5-carbonitrile], 43 nM; that for `O=c1c2cccn2nc([C@H](CO)Nc2ncnc3[nH]cnc23)n1-c1ccccc1` [Example 62, (R)-2-(1-(9H-Purin-6-ylamino)-2-hydroxyethyl)-3-phenylpyrrolo[1,2-f][1,2,4]triazin-4(3H)-one], 73 nM.
Compound `C[C@H](Nc1ncnc(N)c1C#N)c1nn2cccc2c(=O)n1C1CCOCC1` [Example 136, (S)-4-Amino-6-(1-(4-oxo-3-(tetrahydro-2H-pyran-4-yl)-3,4-dihydropyrrolo[1,2-f][1,2,4]triazin-2-yl)ethylamino)pyrimidine-5-carbonitrile] came in with a half-inhibitory concentration (IC50) of 24 nM.
In the case of `C[C@H](Nc1ncnc2[nH]cc(F)c12)c1nn2cccc2c(=O)n1-c1ccccc1` [Example 81, (S)-2-(1-(5-Fluoro-7H-pyrrolo[2,3-d]pyrimidin-4-ylamino)ethyl)-3-phenylpyrrolo[1,2-f][1,2,4]triazin-4(3H)-one] it was 9 nM.
On to `C[C@H](Nc1ncnc(N)c1C#N)c1nn2ccc(C#N)c2c(=O)n1C1CCCOC1` (single isomer, unassigned) [Example 129], for which the concentration for half-maximal inhibition (IC50) is 38 nM.
In the case of `C[C@H](Nc1ncnc2[nH]cnc12)c1nn2ccc(C#N)c2c(=O)n1-c1ccccc1` [Example 61, (S)-2-(1-(9H-Purin-6-ylamino)ethyl)-4-oxo-3-phenyl-3,4-dihydropyrrolo[1,2-f][1,2,4]triazine-5-carbonitrile] it was 6 nM; in that of `C[C@H](Nc1ncnc2[nH]cnc12)c1nn2cccc2c(=O)n1-c1ccccc1` [Example 20, (S)-2-(1-(9H-Purin-6-ylamino)ethyl)-3-phenylpyrrolo[1,2-f][1,2,4]triazin-4(3H)-one], 11 nM; in that of `C[C@H](Nc1ncnc2[nH]cnc12)c1nn2cccc2c(=O)n1-c1cc(F)cc(F)c1` [Example 37, (S)-2-(1-(9H-Purin-6-ylamino)ethyl)-3-(3,5-difluorophenyl)pyrrolo[1,2-f][1,2,4]triazin-4(3H)-one], 15 nM.
On to `C[C@H](Nc1ncnc2[nH]cnc12)c1nn2ccc(C(F)(F)F)c2c(=O)n1-c1cc(F)cc(F)c1` [Example 90, (S)-2-(1-(9H-Purin-6-ylamino)ethyl)-3-(3,5-difluorophenyl)-5-(trifluoromethyl)pyrrolo[1,2-f][1,2,4]triazin-4(3H)-one], for which inhibition was half-maximal at 7 nM (IC50).
`C[C@H](Nc1ncnc(N)c1C#N)c1nn2cccc2c(=O)n1-c1ccccn1` [Example 43, (S)-4-Amino-6-(1-(4-oxo-3-(pyridin-2-yl)-3,4-dihydropyrrolo[1,2-f][1,2,4]triazin-2-yl)ethylamino)pyrimidine-5-carbonitrile] registered an IC50 of 11 nM.
In the case of `N#Cc1c(N)ncnc1N[C@@H](CO)c1nn2cccc2c(=O)n1-c1cc(F)cc(F)c1` [Example 157, (R)-4-Amino-6-(1-(3-(3,5-difluorophenyl)-4-oxo-3,4-dihydropyrrolo[1,2-f][1,2,4]triazin-2-yl)-2-hydroxyethylamino)pyrimidine-5-carbonitrile] it was 66 nM.

Values taken from patent US9340547B2, “Pyrrolotriazinone derivatives as inhibitors P13K” (Almirall, S.A., priority 2011, dated 2016).
